From US10463664B2, “Inhibitors of HSV nucleotidyl transferases and uses therefor” (Saint Louis University, priority 2013, dated 2019)

Legend:
HSV-2 = assay: Anti-HSV-2 replication assay in Vero cells, titer by plaque assay; type: cell-based, herpes simplex virus 2; conditions: for Anti-HSV-2 Log10 suppression 5 μM / Anti-HSV-2 Log10 suppression 50 μM: moi 0.1, 24 h, relative to DMSO; for Inhibition of HSV-2 replication (in words): primary screening; for Anti-HSV-2 Log10 suppression 5 μM (screening symbol) / Anti-HSV-2 Log10 suppression 50 μM (screening symbol): visual inspection
Experimental: (§1) Anti-HSV-1 and -HSV-2 Replication Assay. Compounds to be screened were diluted in PBS supplemented to contain 2% newborn calf serum and 1% glutamine, and added in 100 μL, volume to confluent cell monolayers in 24-well cluster plates. Immediately thereafter HSV-1 and HSV-2, diluted in the supplemented PBS medium, were added to the wells in 50 μl volume such that the final concentration of compound was 50 μM and 5 μM and the multiplicity of infection was 0.1. The plates were incubated at 37° C. for 1 hour and then virus-containing inoculum was removed and the wells were washed once in PBS. Compounds, diluted to 50 μM and 5 μM in DMEM supplemented to contain 2% newborn calf serum and 1% each penicillin/streptomycin, were added at 0.5 mL/well. Plates were incubated at 37° C. an additional 23 hr, and then the plates were visually inspected through a phase contrast microscope for cytopathic effect, and for toxic effect. […] The entire contents of each well were collected by scraping. Samples were frozen at −80° C., and then subsequently thawed, sonicated, and infectious virus titer was determined by standard plaque assay on Vero cell monolayers. Because the compounds were dissolved at 10 mM in 100% DMSO, equivalent dilutions of DMSO were added to additional wells as a control for effects of the diluent. Each experiment was repeated once. EC50 values were determined as above except that serial dilutions of the compound to be tested were prepared starting at 50 μM. The inhibitory values were calculated by non-linear curve-fitting in GraphPad Prism.
(§2) Monolayers were microscopically inspected 24 hours post-infection and wells in which more cells were visually healthier than the DMSO-treated controls were collected. Viral titers in the culture lysates were then determined by standard plaque assay on Vero cells. Inhibition of viral replication was categorized as <1 log10 relative to the DMSO-treated control, 1 to 3 log10 suppression, or ≥3 log10 suppression. […] Additionally, four polyoxygenated heterocycle compounds were tested (#128, 138, 139, 140).

HSV-1 = assay: Anti-HSV-1 replication assay in Vero cells, titer by plaque assay; type: cell-based, herpes simplex virus 1; conditions: for Anti-HSV-1 Log10 suppression 5 μM / Anti-HSV-1 Log10 suppression 50 μM: moi 0.1, 24 h, relative to DMSO; for Inhibition of HSV-1 replication (in words): primary screening; for Anti-HSV-1 Log10 suppression 5 μM (screening symbol) / Anti-HSV-1 Log10 suppression 50 μM (screening symbol): visual inspection
Experimental: as §1, §2

human RNaseH1 = target: T1, human RNaseH1 (Homo sapiens, UniProt O60930); assay: Biochemical inhibition of human RNaseH1 (oligonucleotide-directed RNA cleavage assay); conditions: compounds at 60, 20 or 10 μM
T1 construct: hexahistidine; made in house; host or cells: E. coli
T1 sequence (O60930 1-286): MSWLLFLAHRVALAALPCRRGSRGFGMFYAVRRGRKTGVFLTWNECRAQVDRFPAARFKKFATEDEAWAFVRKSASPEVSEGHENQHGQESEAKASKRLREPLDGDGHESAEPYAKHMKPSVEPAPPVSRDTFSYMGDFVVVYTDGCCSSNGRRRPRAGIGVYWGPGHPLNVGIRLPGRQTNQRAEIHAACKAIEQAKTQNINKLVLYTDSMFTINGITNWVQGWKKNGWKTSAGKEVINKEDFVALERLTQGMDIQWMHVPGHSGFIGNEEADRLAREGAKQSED
Experimental: (§3) Biochemical inhibition of HBV RNaseH and human RNaseH1 activity. […] RNaseH activity was measured using an oligonucleotide-directed RNA cleavage assay in which a DNA oligonucleotide is annealed to an internally ^32P-labeled RNA, the RNA:DNA heteroduplex is incubated with the enzyme to permit cleavage, and then the RNA cleavage products are resolved by electrophoresis and detected by autoradiography. The compounds were included in the reaction mixes at 60, 20, or 10 μM and the amount of the RNA cleavage products in the compound-containing reactions was compared to reactions in which an equivalent concentration of DMSO was added as a vehicle control. The data were quantified using ImageJ.

HBV RNaseH = target: T2, HBV RNaseH (Hepatitis B virus genotype A2 subtype adw2, UniProt P03159); assay: Biochemical inhibition of HBV RNaseH (oligonucleotide-directed RNA cleavage assay); conditions: compounds at 60, 20 or 10 μM
T2 construct: One of the inventors recently produced active recombinant HBV RNase H; hexahistidine; made in house; host or cells: E. coli
T2 sequence (P03159 693-845): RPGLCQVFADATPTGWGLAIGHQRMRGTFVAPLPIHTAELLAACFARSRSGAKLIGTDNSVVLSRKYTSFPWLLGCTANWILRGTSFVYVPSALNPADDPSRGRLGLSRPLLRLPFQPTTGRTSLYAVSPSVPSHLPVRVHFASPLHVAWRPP
Experimental: as §3

Row | Anti-HBV RNaseH (HBV RNaseH) | Compound | Inhibition of HSV-2 replication (in words) (HSV-2) | Inhibition of HSV-1 replication (in words) (HSV-1) | Anti-HSV-2 Log10 suppression 5 μM (screening symbol) (HSV-2) | Anti-HSV-2 Log10 suppression 50 μM (screening symbol) (HSV-2) | Anti-HSV-1 Log10 suppression 5 μM (screening symbol) (HSV-1) | Anti-HSV-1 Log10 suppression 50 μM (screening symbol) (HSV-1) | also measured
1 |  | Nc1ccn(C[C@@H](CO)OCP(=O)(O)O)c(=O)n1 [CID, Cidofovir, reference compound] | negligible | negligible |  |  |  |  | Anti-HSV-2 Log10 suppression 5 μM (HSV-2): 0.38 log10; Anti-HSV-2 Log10 suppression 50 μM (HSV-2): 1.19 log10; Anti-HSV-1 Log10 suppression 5 μM (HSV-1): 0.77 log10; Anti-HSV-1 Log10 suppression 50 μM (HSV-1): 2.67 log10; Anti-Human RNaseH1 (human RNaseH1): − (no inhibition at 60 μM)
2 | − (no inhibition at 60 μM) | NC(=O)c1c(N)sc2c1CCCCC2 [Compound 3] |  |  |  |  |  |  | Anti-HSV-2 Log10 suppression 5 μM (HSV-2): 0.06 log10; Anti-HSV-2 Log10 suppression 50 μM (HSV-2): 0.39 log10; Anti-HSV-1 Log10 suppression 5 μM (HSV-1): 0.19 log10; Anti-HSV-1 Log10 suppression 50 μM (HSV-1): −0.03 log10
3 | + (inhibition at 60 μM) | COC(=O)Oc1nsnc1N1CCOCC1 [Compound 4] |  |  | − | − | − | − | 
4 | + (inhibition at 60 μM) | Cc1cc(C)c(C#N)c(=N)o1 [Compound 5] |  |  | − | − | − | − | 
5 | + (inhibition at 60 μM) | CCOC(=O)c1sc(NC(=O)CSc2nnc(Cc3ccccc3)o2)c(C#N)c1C [Compound 6] |  |  | − | − | − | − | 
6 | − (no inhibition at 60 μM) | O=c1c(O)c(-c2ccc(O)c(O)c2)oc2cc(O)c(O)c(O)c12 [Compound 7] |  |  |  |  |  |  | Anti-HSV-2 Log10 suppression 5 μM (HSV-2): 0.03 log10; Anti-HSV-2 Log10 suppression 50 μM (HSV-2): 1.26 log10; Anti-HSV-1 Log10 suppression 5 μM (HSV-1): 0.44 log10; Anti-HSV-1 Log10 suppression 50 μM (HSV-1): 0.48 log10; Anti-Human RNaseH1 (human RNaseH1): +++ (inhibition at 10 μM)
7 | ++ (inhibition at 20 μM) | Cc1c2cc(O)c(=O)cc-2oc2cc(O)c(O)cc12 [Compound 8] |  |  |  |  |  |  | Anti-HSV-2 Log10 suppression 5 μM (HSV-2): 0.18 log10; Anti-HSV-2 Log10 suppression 50 μM (HSV-2): 2.49 log10; Anti-HSV-1 Log10 suppression 5 μM (HSV-1): −0.18 log10; Anti-HSV-1 Log10 suppression 50 μM (HSV-1): 0.86 log10; Anti-Human RNaseH1 (human RNaseH1): +++ (inhibition at 10 μM)
8 | − (no inhibition at 60 μM) | Cc1cc(C(F)(F)F)c(C#N)c(=O)[nH]1 [Compound 19] |  |  | − | − | − | − | 
9 | − (no inhibition at 60 μM) | N#Cc1cc2ccccc2oc1=N [Compound 21] |  |  | − | − | − | − | 
10 |  | NC(=O)c1c(N)sc2c1CCCCC2 [Compound 22] |  |  | − | − | − | − | 
11 | − (no inhibition at 60 μM) | CCOC(=O)c1sc(NC(=O)CSc2nnc(-c3ccc(Cl)cc3)o2)c(C#N)c1C [Compound 24] |  |  | − | − | − | − | 
12 | +++ (inhibition at 10 μM) | Cc1sc2nc(-c3ccc([N+](=O)[O-])cc3)[nH]c(=O)c2c1C [Compound 38] |  |  |  |  |  |  | Anti-HSV-2 Log10 suppression 5 μM (HSV-2): 0.11 log10; Anti-HSV-2 Log10 suppression 50 μM (HSV-2): −0.05 log10; Anti-HSV-1 Log10 suppression 5 μM (HSV-1): −0.07 log10; Anti-HSV-1 Log10 suppression 50 μM (HSV-1): 0.07 log10
13 |  | [N-]=[N+]=NCc1cccc(C(=O)CC(=O)C(=O)O)c1 [Compound 40] | negligible inhibition | negligible inhibition |  |  |  |  | 
14 |  | O=C(Oc1cccccc1=O)c1ccc(Cl)cc1 [Compound 63] | negligible inhibition | negligible inhibition |  |  |  |  | 
15 | − (no inhibition at 60 μM) | O=C(O)c1cn(C2CC2)c2cc(Cl)c(F)cc2c1=O [Compound 66] |  |  | − | − | − | + | 
16 | − (no inhibition at 60 μM) | CCn1cc(C(=O)O)c(=O)c2ccc(C)nc21 [Compound 70] |  |  | − | − | − | − | 
17 |  | Cn1c(N2CCCCS2(=O)=O)nc(C(=O)NCc2ccc(F)cc2)c(O)c1=O [Compound 72] | negligible inhibition | negligible inhibition |  |  |  |  | 
18 |  | C[C@@H]1CCO[C@H]2Cn3cc(C(=O)NCc4ccc(F)cc4F)c(=O)c(O)c3C(=O)N12 [Compound 73, Dolutegravir, reference compound] | negligible inhibition | negligible inhibition |  |  |  |  | 
19 |  | Cn1c(C(C)(C)NC(=O)c2ccccc2)nc(C(=O)NCc2ccc(F)cc2)c(O)c1=O [Compound 121] | negligible inhibition | negligible inhibition |  |  |  |  | 
20 |  | O=C1c2ccc3ccccc3c2C(=O)N1[O-].[Na+] [Compound 128] | None of these compounds was particularly efficacious | None of these compounds was particularly efficacious |  |  |  |  | 
21 |  | O=C(O)C(=O)CC(=O)c1ccccc1 [Compound 131] | negligible inhibition | negligible inhibition |  |  |  |  | 
22 |  | O=C1C(=O)C(c2ccc(O)c(O)c2)Oc2cc(O)cc(O)c21 (stereo not drawn) [Compound 134] | negligible inhibition | negligible inhibition |  |  |  |  | 
23 |  | O=C1C(=O)C(c2cc(O)c(O)c(O)c2)Oc2cc(O)ccc21 (stereo not drawn) [Compound 135] | negligible inhibition | negligible inhibition |  |  |  |  | 
24 |  | Cc1sc2nc(-c3ccccc3)nc(O)c2c1C [Compound 136] | negligible inhibition | negligible inhibition |  |  |  |  | 
25 |  | O=C1c2ccccc2C(=O)N1O [Compound 138] | None of these compounds was particularly efficacious | None of these compounds was particularly efficacious |  |  |  |  | 
26 |  | O=C1CCC(=O)N1O [Compound 139] | None of these compounds was particularly efficacious | None of these compounds was particularly efficacious |  |  |  |  | 
27 |  | CC1=C(C#N)C(=O)NC(=O)C1=Cc1ccc(-c2ccccc2)o1 [Compound 140] | None of these compounds was particularly efficacious | None of these compounds was particularly efficacious |  |  |  |  | 
